Results reported in PMC3870299, “Comparative genomics and functional analysis of rhamnose catabolic pathways and regulons in bacteria” (Frontiers in Microbiology, 2013).

Experiments:
Ca_RhaEW = target: T1, Ca_RhaEW (Chloroflexus aurantiacus, UniProt A9WGG0); test: coupled NADH detection at […] nm and GC-MS of products; type: biochemical; conditions: substrate made in situ from L-Rha by Ec_RhaA and Tm_RhaB, NAD+ 1.4 mM, Zn2+, pH 8, 30-70 C
T1 construct: gene Caur_2283; full-length, N-terminal His6 tag, expressed in E. coli, Ni-NTA purified
T1 sequence (A9WGG0 entry or part of it): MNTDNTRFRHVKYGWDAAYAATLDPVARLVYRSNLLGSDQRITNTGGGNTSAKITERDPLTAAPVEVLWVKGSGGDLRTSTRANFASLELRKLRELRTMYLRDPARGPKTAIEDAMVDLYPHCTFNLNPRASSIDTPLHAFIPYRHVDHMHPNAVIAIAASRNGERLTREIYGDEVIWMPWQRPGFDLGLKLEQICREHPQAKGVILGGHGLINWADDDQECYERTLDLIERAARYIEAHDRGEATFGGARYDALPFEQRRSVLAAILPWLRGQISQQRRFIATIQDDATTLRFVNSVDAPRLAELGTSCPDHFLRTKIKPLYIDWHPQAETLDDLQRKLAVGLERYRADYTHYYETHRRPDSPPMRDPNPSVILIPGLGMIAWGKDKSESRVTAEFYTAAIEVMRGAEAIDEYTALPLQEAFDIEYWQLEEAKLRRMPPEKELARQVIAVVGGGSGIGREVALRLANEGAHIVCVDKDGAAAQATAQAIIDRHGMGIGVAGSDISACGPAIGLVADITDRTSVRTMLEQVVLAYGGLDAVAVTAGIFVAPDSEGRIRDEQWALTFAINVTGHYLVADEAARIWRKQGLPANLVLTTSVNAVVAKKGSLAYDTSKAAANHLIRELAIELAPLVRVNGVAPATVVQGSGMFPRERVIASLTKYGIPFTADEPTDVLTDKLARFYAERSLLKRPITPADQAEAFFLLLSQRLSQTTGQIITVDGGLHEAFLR

Bs_RhaEW = target: T2, Bs_RhaEW (Bacillus subtilis, UniProt P40747); test: coupled NADH detection at […] nm; type: biochemical; conditions: substrate made in situ from L-Rha by Ec_RhaA and Tm_RhaB; NAD+ 2.5 mM; Zn2+; pH 7.5; 25 C
T2 construct: gene yuxG; full-length, N-terminal His6 tag, expressed in E. coli, Ni-NTA purified
T2 sequence (P40747 whole entry): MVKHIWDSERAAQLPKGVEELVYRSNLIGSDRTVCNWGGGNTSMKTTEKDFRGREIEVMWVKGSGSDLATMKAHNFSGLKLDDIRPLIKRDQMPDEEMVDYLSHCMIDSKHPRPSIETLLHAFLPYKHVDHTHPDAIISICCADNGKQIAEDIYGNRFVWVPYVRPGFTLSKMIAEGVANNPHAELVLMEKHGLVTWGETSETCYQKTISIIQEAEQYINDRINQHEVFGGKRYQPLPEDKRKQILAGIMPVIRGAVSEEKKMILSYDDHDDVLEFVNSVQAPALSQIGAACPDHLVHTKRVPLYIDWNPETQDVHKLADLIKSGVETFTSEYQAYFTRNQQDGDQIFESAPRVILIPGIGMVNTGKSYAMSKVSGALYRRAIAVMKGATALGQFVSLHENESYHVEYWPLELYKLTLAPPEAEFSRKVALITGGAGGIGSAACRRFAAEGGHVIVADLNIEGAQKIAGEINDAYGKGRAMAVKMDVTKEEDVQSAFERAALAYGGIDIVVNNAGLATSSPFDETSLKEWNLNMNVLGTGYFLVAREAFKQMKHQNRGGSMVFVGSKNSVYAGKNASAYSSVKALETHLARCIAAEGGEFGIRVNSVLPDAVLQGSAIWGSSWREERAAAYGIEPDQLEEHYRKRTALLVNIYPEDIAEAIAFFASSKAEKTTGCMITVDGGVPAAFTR

RhaR = target: T3, RhaR (Chloroflexus aurantiacus, UniProt A9WGG7); test: EMSA, loss of RhaR-DNA binding; conditions: effector at 2 mM; RhaR 1 uM; pH 8.0; 50 C; L-rhamnulose made enzymatically from L-Rha by Ec_RhaA; Figure 5 legend prints L-rhamnose for this effect (apparent misprint)
T3 construct: gene Caur_2290

St_RhaZ = target: T4, St_RhaZ (Salmonella enterica, UniProt Q8ZKS2); test: coupled NADH oxidation at […] nm; type: biochemical; conditions: substrate made in situ by Ec_RhaA, Tm_RhaB and St_RhaD; NADH 0.25 mM; pH 7.5; 25 C; no dehydrogenase activity with NAD+
T4 construct: gene STM4044; full-length, N-terminal His6 tag, expressed in E. coli, Ni-NTA purified
T4 sequence (Q8ZKS2 1-382): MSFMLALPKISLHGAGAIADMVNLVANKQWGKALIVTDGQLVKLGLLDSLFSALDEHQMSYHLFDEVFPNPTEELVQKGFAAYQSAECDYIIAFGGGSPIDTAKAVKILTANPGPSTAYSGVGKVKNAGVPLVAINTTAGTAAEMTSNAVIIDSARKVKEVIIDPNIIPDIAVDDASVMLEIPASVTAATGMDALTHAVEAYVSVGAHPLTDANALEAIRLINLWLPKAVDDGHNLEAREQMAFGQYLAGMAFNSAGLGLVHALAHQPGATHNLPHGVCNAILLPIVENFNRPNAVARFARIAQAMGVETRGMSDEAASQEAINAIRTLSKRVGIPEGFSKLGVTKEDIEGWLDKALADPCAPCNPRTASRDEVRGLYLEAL
Text: St_RhaZ was active under these conditions

RhaR (DeoR family) = target: T5, RhaR (DeoR family) (Chloroflexus aurantiacus J-10-fl, UniProt A9WGG7 1-260); test: EMSA; RhaR 0.25-1 uM, no effector; poly(dI-dC); EMSA: 50 mM Tris-HCl pH 8.0, 150 mM NaCl, 5 mM MgCl2, 1 mM DTT (printed DDT), 0.05% NP-40, 2.5% glycerol, 1 ug poly(dI-dC), 0.2 nM DNA, 20 ul, 25 min at 50 C; 1.5% agarose gel at room temperature; conditions: protein: recombinant; tags: His6-Smt3 (SUMO) N-terminal tag, cleaved with Ulp1; blunt
T5 sequence: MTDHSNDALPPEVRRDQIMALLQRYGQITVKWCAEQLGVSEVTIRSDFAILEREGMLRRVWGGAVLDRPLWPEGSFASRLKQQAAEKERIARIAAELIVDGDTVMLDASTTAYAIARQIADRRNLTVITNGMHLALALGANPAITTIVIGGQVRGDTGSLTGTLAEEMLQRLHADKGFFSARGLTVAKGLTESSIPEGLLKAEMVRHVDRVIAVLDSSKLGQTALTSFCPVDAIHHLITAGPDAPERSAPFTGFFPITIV

## C[C@H](O)[C@H](O)[C@@H](O)C(=O)COP(=O)(O)O [L-rhamnulose-1-P]
Ca_RhaEW
  coupled NADH detection at 340 nm and GC-MS of products: Ca_RhaEW acts in vitro to convert L-rhamnulose-1-P to L-lactate and DHAP
Bs_RhaEW
  coupled NADH detection at 340 nm: The Bs_RhaEW protein showed weak, but reproducible activity

## C[C@@H]1OC(O)(CO)[C@H](O)[C@H]1O (stereo partly drawn) [L-rhamnulose]
RhaR
  EMSA, loss of RhaR-DNA binding: L-rhamnulose abolished the specific DNA-binding ability of RhaR

## NC(=O)c1ccc[n+]([C@@H]2O[C@H](COP(=O)(O)OP(=O)(O)OC[C@H]3O[C@@H](n4cnc5c(N)ncnc54)[C@H](O)[C@@H]3O)[C@@H](O)[C@H]2O)c1 [NAD^+]
Ca_RhaEW; no product without NAD+, no activity with NADH
  coupled NADH detection at 340 nm and GC-MS of products: exclusion of NAD^+ which is an essential cofactor of L-lactaldehyde dehydrogenase
Bs_RhaEW
  coupled NADH detection at 340 nm: the reduction of NAD^+ or oxidation of NADH was monitored

## NC(=O)C1=CN([C@@H]2O[C@H](COP(=O)(O)OP(=O)(O)OC[C@H]3O[C@@H](n4cnc5c(N)ncnc54)[C@H](O)[C@@H]3O)[C@@H](O)[C@H]2O)C=CC1 [NADH]
St_RhaZ
  coupled NADH oxidation at 340 nm: with the exception of supplying NADH as the cofactor. St_RhaZ was active under these conditions

B1: rhaR upstream 48-bp fragment (38-bp RhaR operator) (dsDNA)
DNA 1: GGGGGTTCGTAAAATCTCGTAAGTACTTGACAAATCTTGAAAAGGGGG
DNA 2: CCCCCTTTTCAAGATTTGTCAAGTACTTACGAGATTTTACGAACCCCC
RhaR (DeoR family)
  binding result: binds
